Results reported in ChEMBL document CHEMBL4028900, “Design of Novel 3-Pyrimidinylazaindole CDK2/9 Inhibitors with Potent In Vitro and In Vivo Antitumor Efficacy in a Triple-Negative Breast Cancer Model” (J Med Chem, 2017).
In brackets after ≈: the same amount, converted by molar mass.

Key:
[1] = target: CDK9/cyclin T1 (Homo sapiens, UniProt P50750); assay type: protein-complex assay
[2] = system: HCT-116; assay: Antiproliferative activity against human HCT116 cells after 72 hrs by SRB assay; details: HCT-116, 72 h
[3] = target: CDK2/Cyclin A2 (Homo sapiens, UniProt P24941); assay: Inhibition of CDK2/cyclin A (unknown origin) using histone H1 as substrate after 30 mins in presence of [33P]-gamma-ATP; assay type: protein-complex assay
[4] = target: CDK9/cyclin T1 (Homo sapiens) (UniProt O60563+P50750); details: at 500 nM
[5] = target: CDK2/Cyclin A2 (Homo sapiens) (UniProt P24941+P20248); details: at 500 nM
Description: Inhibition of CDK2/cyclin A (unknown origin) at 500 nM using histone H1 as substrate after 30 mins in presence of [33P]-gamma-ATP relative to control

[6] = Thermodynamic equilibrium solubility of the compound in PBS
[7] = Thermodynamic equilibrium solubility of the compound in SGF
[8] = Thermodynamic equilibrium solubility of the compound in SIF
[9] = Thermodynamic equilibrium solubility of the compound in water
[10] = system: SH-SY5Y; assay: Antiproliferative activity against human SH-SY5Y cells after 24 hrs by MTT assay; assay type: functional, cell-based
[11] = system: MDA-MB-468; assay: Antiproliferative activity against human MDA-MB-468 cells
[12] = system: T47D; assay: Antiproliferative activity against human T47D cells after 72 hrs by SRB assay
[13] = AUC (0 to infinity) in BALB/c mouse at 2.5 mg/kg, iv by LC/MS-MS analysis; assay type: ADME, organism-based; parameters: dose 2.5 mg/kg, time infinity, route intravenous; details: in vivo
[14] = Clearance in BALB/c mouse at 2.5 mg/kg, iv by LC/MS-MS analysis; assay type: ADME, organism-based; details: in vivo
[15] = Plasma concentration in BALB/c mouse at 2.5 mg/kg, iv at 0.25 hrs by LC/MS-MS analysis; assay type: ADME, organism-based
[16] = Volume of distribution in BALB/c mouse at 2.5 mg/kg, iv by LC/MS-MS analysis; assay type: ADME, organism-based; details: in vivo
[17] = system: 4T1; assay: Antiproliferative activity against mouse 4T1 cells after 24 hrs by MTT assay; details: 4T1, 24 h
[18] = system: BT-549; assay: Antiproliferative activity against human BT549 cells
[19] = Plasma concentration in BALB/c mouse at 2.5 mg/kg, iv at 4 hrs by LC/MS-MS analysis; assay type: ADME, organism-based
[20] = system: MCF7; assay: Antiproliferative activity against human MCF7 cells
[21] = AUC (0 to t) in BALB/c mouse at 2.5 mg/kg, iv by LC/MS-MS analysis; assay type: ADME, organism-based; details: in vivo
[22] = Plasma concentration in BALB/c mouse at 2.5 mg/kg, iv at 2 hrs by LC/MS-MS analysis; assay type: ADME, organism-based
[23] = Antiproliferative activity against HEK cells; details: Homo sapiens, HEK293
[24] = Initial concentration in BALB/c mouse at 2.5 mg/kg, iv by LC/MS-MS analysis; assay type: ADME, organism-based; details: in vivo
[25] = Half life in BALB/c mouse at 2.5 mg/kg, iv by LC/MS-MS analysis; assay type: ADME, organism-based; details: in vivo
[26] = system: MDA-MB-231; assay: Antiproliferative activity against human MDA-MB-231 cells
[27] = Plasma concentration in BALB/c mouse at 2.5 mg/kg, iv at 0.5 hrs by LC/MS-MS analysis; assay type: ADME, organism-based
[28] = Plasma concentration in BALB/c mouse at 2.5 mg/kg, iv at 1 hr by LC/MS-MS analysis; assay type: ADME, organism-based
[29] = Plasma concentration in BALB/c mouse at 2.5 mg/kg, iv at […] by LC/MS-MS analysis; assay type: ADME, organism-based

CDK9/cyclin T1, sequence (O60563 whole entry): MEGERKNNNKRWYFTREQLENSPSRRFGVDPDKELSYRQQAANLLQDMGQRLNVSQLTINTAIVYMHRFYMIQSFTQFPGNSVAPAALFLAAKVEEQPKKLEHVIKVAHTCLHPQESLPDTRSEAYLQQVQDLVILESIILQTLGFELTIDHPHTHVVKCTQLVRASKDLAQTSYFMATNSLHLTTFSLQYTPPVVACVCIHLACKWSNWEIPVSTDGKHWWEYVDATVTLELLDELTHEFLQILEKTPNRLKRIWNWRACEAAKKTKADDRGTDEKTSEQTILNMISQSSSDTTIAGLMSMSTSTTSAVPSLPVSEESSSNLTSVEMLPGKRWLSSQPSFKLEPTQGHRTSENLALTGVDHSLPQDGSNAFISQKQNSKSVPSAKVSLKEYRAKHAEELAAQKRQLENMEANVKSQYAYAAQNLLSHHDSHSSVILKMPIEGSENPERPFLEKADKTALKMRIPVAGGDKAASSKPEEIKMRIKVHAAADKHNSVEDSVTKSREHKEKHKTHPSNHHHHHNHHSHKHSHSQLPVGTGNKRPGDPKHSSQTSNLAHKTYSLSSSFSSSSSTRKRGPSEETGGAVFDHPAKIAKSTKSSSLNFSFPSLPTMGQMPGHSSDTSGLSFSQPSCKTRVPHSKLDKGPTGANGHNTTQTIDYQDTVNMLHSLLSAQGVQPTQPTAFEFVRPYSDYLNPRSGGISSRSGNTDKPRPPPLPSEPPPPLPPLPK
CDK9/cyclin T1, sequence (P50750 whole entry): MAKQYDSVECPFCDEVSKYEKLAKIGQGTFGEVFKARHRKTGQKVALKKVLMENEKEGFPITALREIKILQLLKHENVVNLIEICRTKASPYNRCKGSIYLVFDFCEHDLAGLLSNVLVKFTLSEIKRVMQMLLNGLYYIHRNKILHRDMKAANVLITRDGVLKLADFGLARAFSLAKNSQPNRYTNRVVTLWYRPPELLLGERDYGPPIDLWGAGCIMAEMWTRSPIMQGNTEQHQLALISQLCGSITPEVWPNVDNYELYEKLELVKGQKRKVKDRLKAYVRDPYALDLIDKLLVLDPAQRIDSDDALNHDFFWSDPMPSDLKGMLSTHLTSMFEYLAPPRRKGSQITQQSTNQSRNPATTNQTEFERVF

## COc1ccc(CCNc2nccc(-c3c[nH]c4ncccc34)n2)cc1
[1]
  IC50: 38 nM
[2]
  IC50: 9500 nM
[3]
  IC50: 4 nM
[4]
  inhibition: 91%
[5]
  inhibition: 97.7%

## c1ccc(CCNc2nccc(-c3c[nH]c4ncccc34)n2)cc1
[6]
  solubility thermodynamic: < 5 µg/mL
[1]
  IC50: 20 nM
[2]
  IC50: 560 nM
[3]
  IC50: 10 nM
[4]
  inhibition: 92.4%
[7]
  solubility thermodynamic: 1500 µg/mL (≈ 4760 µM)
[8]
  solubility thermodynamic: > 5 µg/mL
[9]
  solubility thermodynamic: < 5 µg/mL
[5]
  inhibition: 92.5%

## Nc1nccc(-c2cn(S(=O)(=O)c3ccc(F)cc3)c3ncccc23)n1
[4]
  inhibition: 40%
[5]
  inhibition: 22.6%

## c1cnc2[nH]cc(-c3ccnc(N4CCOCC4)n3)c2c1
[1]
  IC50: 642 nM
[3]
  IC50: 231 nM
[4]
  inhibition: 72.9%
[5]
  inhibition: 73.3%

## CCc1ccccc1-c1cnc2[nH]cc(-c3ccnc(N)n3)c2c1
[1]
  IC50: 213 nM
[3]
  IC50: 75 nM
[4]
  inhibition: 70.4%
[5]
  inhibition: 79.3%

## c1cnc2[nH]cc(-c3ccnc(N4CCCCC4)n3)c2c1
[1]
  IC50: 800 nM
[3]
  IC50: 300 nM
[4]
  inhibition: 71.9%
[5]
  inhibition: 74%

## COc1ccc2[nH]c(-c3cnc4[nH]cc(-c5ccnc(N)n5)c4c3)cc2c1
[1]
  IC50: 342 nM
[3]
  IC50: 16 nM
[4]
  inhibition: 82.4%
[5]
  inhibition: 90.2%

## Nc1nccc(-c2c[nH]c3ncc(-c4cc5ccccc5s4)cc23)n1
[1]
  IC50: 82 nM
[3]
  IC50: 12 nM
[4]
  inhibition: 86.4%
[5]
  inhibition: 92%

## c1ccc2c(CCNc3nccc(-c4c[nH]c5ncccc45)n3)c[nH]c2c1
[1]
  IC50: 52 nM
[3]
  IC50: 10 nM
[4]
  inhibition: 88%
[5]
  inhibition: 89.7%

## Nc1nccc(-c2c[nH]c3ncc(-c4cccnc4)cc23)n1
[6]
  solubility thermodynamic: 200 µg/mL (≈ 694 µM)
[2]
  IC50: 700 nM
[10]
  IC50: 1000 nM
[7]
  solubility thermodynamic: 800 µg/mL (≈ 2770 µM)
[8]
  solubility thermodynamic: 1 µg/mL (≈ 3.47 µM)
[9]
  solubility thermodynamic: 80 µg/mL (≈ 277 µM)

## Nc1nccc(-c2c[nH]c3ncc(-c4ccoc4)cc23)n1
[6]
  solubility thermodynamic: 10 µg/mL (≈ 36.1 µM)
[2]
  IC50: 700 nM
[10]
  IC50: 900 nM
[7]
  solubility thermodynamic: 800 µg/mL (≈ 2890 µM)
[8]
  solubility thermodynamic: 1 µg/mL (≈ 3.61 µM)
[9]
  solubility thermodynamic: 20 µg/mL (≈ 72.1 µM)

## CSc1ccccc1-c1cnc2[nH]cc(-c3ccnc(N)n3)c2c1
[1]
  IC50: 45 nM
[3]
  IC50: 24 nM
[4]
  inhibition: 93.7%
[5]
  inhibition: 78.7%

## Nc1nccc(-c2c[nH]c3ncc(-c4cc5ccccc5o4)cc23)n1
[1]
  IC50: 93 nM
[3]
  IC50: 23 nM
[4]
  inhibition: 85%
[5]
  inhibition: 87.9%

## Nc1nccc(-c2c[nH]c3ncc(-c4ccsc4)cc23)n1
[1]
  IC50: 35 nM
[2]
  IC50: 600 nM
[3]
  IC50: 1 nM
[4]
  inhibition: 93.5%
[10]
  IC50: 3300 nM
[5]
  inhibition: 95.1%

## Nc1nccc(-c2c[nH]c3ncccc23)n1 [MERIOLIN 1]
[11]
  IC50: 13000 nM
[12]
  IC50: 8000 nM
[13]
  AUC(0-inf): 46.9 ng·h/mL
[14]
  clearance: 897 mL/min/kg
[15]
  concentration at 0.25 h: 34.1 ng/mL
[6]
  solubility thermodynamic: 89 µg/mL (≈ 421 µM)
[16]
  Vd: 36.5 L/kg
[17]
  IC50: 2500 nM
[18]
  IC50: 7000 nM
[1]
  IC50: 30 nM
[2]
  IC50: 1800 nM
[19]
  concentration at 4 h: 0.8 ng/mL
[20]
  IC50: 6000 nM
[21]
  AUC(0-t): 46.2 ng·h/mL
[22]
  concentration at 2 h: 1 ng/mL
[7]
  solubility thermodynamic: 352 µg/mL (≈ 1670 µM)
[23]
  IC50: 36000 nM
[24]
  C0: 230 ng/mL
[8]
  solubility thermodynamic: 87.7 µg/mL (≈ 415 µM)
[25]
  half-life: 28.2 min
[9]
  solubility thermodynamic: 95.8 µg/mL (≈ 454 µM)
[26]
  IC50: 6000 nM
[27]
  concentration at 0.5 h: 12.6 ng/mL
[28]
  concentration at 1 h: 4.5 ng/mL
[29]
  concentration at […]: 167 ng/mL

## Nc1nccc(-c2c[nH]c3ncc(-c4ccc(Cl)cc4)cc23)n1
[6]
  solubility thermodynamic: 120 µg/mL (≈ 373 µM)
[2]
  IC50: 500 nM
[10]
  IC50: 900 nM
[7]
  solubility thermodynamic: 74.4 µg/mL (≈ 231 µM)
[8]
  solubility thermodynamic: 113 µg/mL (≈ 352 µM)
[9]
  solubility thermodynamic: 57.4 µg/mL (≈ 178 µM)
